# Article PMC6930570, “2-Arylidene-1-indandiones as Pleiotropic Agents with Antioxidant and Inhibitory Enzymes Activities” (Molecules, 2019)
# Assay: Superoxide anion radical scavenging activity (PMS/NADPH/NBT)
# Type: biochemical
# Settings: 100 μM (stated for compound 3)
# Experimental: The compounds have been tested to scavenge superoxide anion radicals. However, no results were recorded under the experimental conditions.
# The superoxide anion producing system was set up by mixing PMS, NADPH, and air oxygen. The production of superoxide anion was estimated by the nitrobluetetrazole NBT method. The reaction mixture containing compounds, 3 μM PMS, 78 μM NADPH, and 25 μM NBT in […] phosphate buffer pH 7.4 was incubated for 2 min at room temperature and the absorption was measured at 560 nm against a blank containing PMS. The tested compounds were pre-incubated for 2 min before adding NADPH. Caffeic acid was used as an appropriate standard (76%).
compound,measurement,value
"O=C(O)/C=C/c1ccc(O)c(O)c1 [Caffeic acid, reference compound]",superoxide anion scavenging activity,76%
